Key:
PTH(1–84) [1] = target: T1, PTH(1–84) (Homo sapiens, UniProt P01270); test: Fluorescence quenching titration with PTH(1–84); type: binding
T1 construct: SUMO (N, cleaved yes); His-tag (C); made in house; host or cells: E. coli BL21 codon+
T1 sequence (P01270 32-115): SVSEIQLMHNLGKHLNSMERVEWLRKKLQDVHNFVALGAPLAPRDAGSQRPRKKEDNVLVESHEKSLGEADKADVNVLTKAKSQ
Protocol: (§1) The natural form of parathyroid hormone comprises 84 residues, however, PTH(1–34) is sufficient for receptor activation. PTH contains one tryptophan residue at position 23. Thus it can be used as a highly sensitive fluorescent probe for the analysis of ligand binding by fluorescence spectroscopy. PTH is composed of structured sections mainly from positions 1–37, whereas the C–terminal part is largely unstructured. […] In order to establish the binding a titration experiment was carried out where the PTH(1–34) concentration was kept constant and the concentration of the Zn complex was varied.
(§2) The fluorescence quenching behavior was analyzed according to the equation given in the experimental section. […] In order to evaluate the interaction at the C–terminal part of the PTH and its role in binding, full length PTH(1–84) was taken and its binding was established.
(§3) Fluorescence titrations were carried out on a JASCO FP6500. The samples were excited at 280 nm wavelength and the emission spectra were recorded in the range between 290 nm to 450 nm. Experiments were carried out in 10 mM BisTris, 300 mM Na2SO4, 0.02% NaN3, pH 7.2 using a 1 cm path length quartz cell. The concentration of PTH(1–34), PTH(1–84) and nECD-PTH1R used in the titration experiments were 7.4 μM, 8.1 μM and 5 μM, respectively. In a typical titration experiment, 4 μM of Zn complex or 9-anthracenemethanol was added and spectra were recorded after each addition. Zn complex or 9-anthracenemethanol in buffer was used as blank titration and these spectral traces were subtracted from the main titration. The Zn complex or 9-anthracenemethanol was dissolved in dimethyl sulfoxide and further diluted for experiments. The final concentration of DMSO was <1% in any experiment.
(§4) Fluorescence data were analyzed according to the following equation:
(§5) with P = (P0 / (V0 + L))V0 and L1 = (L0 / (V0 + L))L and Q – fluorescence intensity, P – protein concentration, L – ligand concentration, V – volume, n – binding sites and 0 – indicates start point.

[2] = tested on: PTH(1–84) induced cAMP in HEK 293 cells expressing hPTH1R; test: cAMP accumulation assay, compound pre-incubated with PTH(1–84); type: cell-based, Human
From the text: NMR spectroscopy identified that the Zn complex interacts with the N–terminal part of the peptide hormone. The binding region from residues 1–37 of PTH(84) is important for recognition, interaction with the extracellular loops and trans–membrane helices of the receptor and bringing about activation of the later. There are two principal signal transduction pathways involving the G protein–coupled receptors: the cAMP signal pathway and the phosphatidylinositol signal pathway. Parathyroid hormone is involved in the cAMP pathway for its biological regulation. Because binding of the Zn complex was at the N–terminal part of PTH, it is interesting to investigate the cAMP response towards its receptor in the presence of the Zn complex. Therefore PTH(1–34) and PTH(1–84) induced cAMP accumulation was measured in stable HEK 293 cell lines expressing recombinant PTH1R[33]. A cAMP generation assay was carried out in a Zn complex concentration dependent manner, keeping the cells and peptide hormone concentrations constant. PTH response without Zn complex was considered as 100% cAMP response. The peptide hormones were exposed to Zn complex for 15 minutes to allow for complex formation and subsequently cAMP generation was studied.
(§6) HEK 293 cells stably expressing hPTH1R were used for the cAMP accumulation assay following the previously reported procedure. The reaction was carried out at 37 °C and fluorescence measurements were taken using a VICTOR X4 2030 plate reader (PerkinElmer Life and Analytical Sciences). A fixed amount of 0.01 μM peptide hormones and 4 × 10^3 cells per well were used to monitor the cAMP response. The Zn complex or 9-anthracenemethanol was diluted form 0.1 μM to 100 μM and incubated for 15 minutes with the peptide hormone before addition of HEK 293 cells. All experiments were performed in triplicate and repeated independently three times. The maximum cAMP response were calculated as a percentage of the maximal response of PTH(1–34) or PTH(1–84). The effect of Zn complex or 9-anthracenemethanol on receptor was evaluated by incubating these with the cells for 15 minutes followed by washing with buffer. These treated cells were added to the reaction mixture containing untreated PTH(1–84) as described above.

PTH1R in HEK 293 cells = test: cAMP assay, compound pre-incubated with cells followed by PTH(1–84); type: cell-based, Human; conditions: compound pre-incubated with the cells, then PTH(1–84)
Protocol: (§7) The cAMP generation was also analyzed to see the effect of the Zn complex on the receptor itself. Here, the Zn complex was pre-incubated with the cells followed by addition of PTH(1–84). […] In another control experiment cAMP generation was also studied by incubating the 9-anthracenemethanol with the peptide (Figure S9) or directly with the cells (grey bars in Figure S7). […] Additionally, inhibition of cAMP response or cell toxicity was also not observed up to 100 μM of Zn–perchlorate (Figure S10).
as §6, with “All experiments were performed in triplicate and repeated independently three times.” left out, “These treated cells were added to the reaction mixture containing untreated PTH(1–84) as described above.” left out

PTH(1–84) [3] = target: T1, PTH(1–84); test: NMR 1H–15N HSQC titration with 15N–PTH(1–84); type: binding; conditions: pH 5.3, 25 °C
From the text: Preferential binding at residue-level resolution was further investigated by choosing full length ^15N PTH(1–84) to see whether or not the C–terminal region is involved in the Zn complex interaction. […] These NMR spectra indicate that the N–terminal domain of PTH (1–84) binds to the Zn complex whereas the C–terminus part remains solvent exposed and flexible enough to result in observable resonances. […] Histidine 63 is the only exception in the C–terminal part of PTH(1–84) sensing complex formation.
The spectra were recorded at the concentration of 50 μM of peptide hormones. Subsequently, titration was carried out with the addition of 0.5 μl of 10 mM Zn complex until there was no further change in NMR intensity observed. The spectrum corresponding to the 1:4 complex formations was used for the analysis. For the 9-anthracenemethanol titration experiment 20 μM of PTH was used. A titration was carried out and the 1:4 complex of PTH:9-anthracenemethanol was analyzed in detail. The spectra were corrected for the dilution factor. The previously determined NMR assignments of PTH resonances were used[24][63][64]. The spectra were recorded in the 10 mM BisTris, 300 mM Na2SO4, 0.02% NaN3, pH 5.3, with a Bruker 800 MHz Avance III spectrometer equipped with a CP–TCI cryoprobe at 25 °C. Spectra were processed using the programs NMRPipe and NMR Draw.

HEK 293 cells = test: Cell viability, MTT assay; type: cell-based, Human; conditions: up to 100 μM, MTT after 3h
Protocol: as §7
Figure S10: (a) cAMP response and (b) cell viability against Zn–perchlorate. Cell viability was tested after 3h using MTT assay.

Water solubility = type: physicochemical; conditions: in the absence of the metal
From the text: As GPCRs are involved in many diseases, they are targets for approximately 40% of all human modern medicinal drugs. However, these drugs target only a small fraction (about 10%) of known GPCRs[37]. Within the context of receptors including GPCRs, typically available drug molecules for pharmacological applications directly target the receptors. However, literature is limited with regards to molecules which bind to the agonist to modify its receptor activating function. A potential class of molecules for this purpose could be organic/coordination/mixed–ligand complexes. In mixed–ligand complexes one metal ion can replace another metal ion bearing the original skeletal system. A metal replacement can lead to suppressed or negligible biological responses. […] In principle, Zn(II) is less toxic than Cu(II) and it is redox silent therefore, this metal was chosen in exchange of Cu(II).

[4] = design: method as in PMID 21709916; conditions: cited from earlier work
cancer cells = tested on: cancer cells; design: method as in PMID 21709916; conditions: broad range of cancer cells; cited from earlier work
PTH(1–34) [5] = target: T2, PTH(1–34) (Homo sapiens, UniProt P01270); test: Fluorescence quenching titration with PTH(1–34); type: binding
T2 construct: Human PTH(1–34) and PTH(1–84) were purified as previously reported; SUMO (N, cleaved yes); His-tag (C); made in house; host or cells: E. coli BL21 codon+
T2 sequence (P01270 32-65 limits assumed): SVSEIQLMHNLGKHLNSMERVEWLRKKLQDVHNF
Protocol: as §1, §2, §3, §4, §5

PTH(1–34) [6] = target: T2, PTH(1–34); test: ITC with PTH(1–34); type: binding; conditions: 25 °C
Protocol: (§8) ITC is a well suited method to evaluate protein-ligand interaction. The interaction of the Zn complex with PTH(1–34) and PTH(1–84) was evaluated by ITC at 25 °C. Zn complex binding was exothermic in nature for both the peptides (Fig. 3b and Figure S4). Data fitting gave n values of 2.28 ± 0.13 and 1.93 ± 0.04 for PTH(1–34) and PTH(1–84), respectively. […] The enthalpic gain counterbalances the unfavorable loss in entropy of the system upon complex binding.
(§9) The calorimetric titrations were performed at 25 °C with a MicroCal VPITC isothermal titration calorimeter. Small aliquots (7 μl) of the Zn complex were added to a solution of the respective peptide in the calorimeter cell. Successive additions were separated by a 300 second interval to allow the resulting peak from peptide Zn complex interaction to return to the baseline. All of the studies were carried out in 10 mM BisTris, 300 mM Na2SO4, pH 7.2.

PTH(1–84) [7] = target: T1, PTH(1–84); test: ITC with PTH(1–84); type: binding; conditions: 25 °C
Protocol: as §8, §9

[8] = tested on: PTH(1–34) induced cAMP in HEK 293 cells expressing hPTH1R; test: cAMP accumulation assay, compound pre-incubated with PTH(1–34); type: cell-based, Human; conditions: PTH(1–34) 0.01 μM, 15 min pre-incubation with peptide
From the text: NMR spectroscopy identified that the Zn complex interacts with the N–terminal part of the peptide hormone. The binding region from residues 1–37 of PTH(84) is important for recognition, interaction with the extracellular loops and trans–membrane helices of the receptor and bringing about activation of the later. There are two principal signal transduction pathways involving the G protein–coupled receptors: the cAMP signal pathway and the phosphatidylinositol signal pathway. Parathyroid hormone is involved in the cAMP pathway for its biological regulation. […] Therefore PTH(1–34) and PTH(1–84) induced cAMP accumulation was measured in stable HEK 293 cell lines expressing recombinant PTH1R[33]. […]
HEK 293 cells stably expressing hPTH1R were used for the cAMP accumulation assay following the previously reported procedure. The reaction was carried out at 37 °C and fluorescence measurements were taken using a VICTOR X4 2030 plate reader (PerkinElmer Life and Analytical Sciences). […] The maximum cAMP response were calculated as a percentage of the maximal response of PTH(1–34) or PTH(1–84). The effect of Zn complex or 9-anthracenemethanol on receptor was evaluated by incubating these with the cells for 15 minutes followed by washing with buffer. […]

OCc1c2ccccc2cc2ccccc12 [9-anthracenemethanol, reference compound]
Kd (PTH(1–84) [1]; fluorescence titration against PTH(1–84)): 3520 ± 380 µM | suppression of intracellular cAMP generation ([2]; compound incubated with the peptide PTH(1–84)): significant suppression of intracellular cAMP generation was not observed | suppression of cAMP generation (PTH1R in HEK 293 cells): significant suppression of intracellular cAMP generation was not observed | change in NMR cross peaks / intensity of PTH(1–84) (PTH(1–84) [3]): no residue specific NMR intensity loss

[O-][Cl+3]([O-])([O-])[O-].[O-][Cl+3]([O-])([O-])[O-].[Zn+2] [Zn–perchlorate, reference compound]
change in fluorescence intensity (PTH(1–84) [1]; up to 200 μM, PTH(1–84)): did not show any significant change | inhibition of cAMP response ([2]; up to 100 μM): not observed | change in NMR cross peaks / intensity of PTH(1–84) (PTH(1–84) [3]): did not show a significant change in NMR cross peaks | cell toxicity (HEK 293 cells): not observed

c1ccc(-c2cc(-c3c4ccccc4cc4ccccc34)cc(-c3ccccn3)n2)nc1 [anthracenyl terpyridine]
water solubility (Water solubility): water insoluble

Cu(II) complex of anthracenyl terpyridine [reference compound]
nuclease activity [4]: showed nuclease and antiprolifirative activity | antiproliferative activity (cancer cells): showed nuclease and antiprolifirative activity

Zn(II) complex of anthracenyl terpyridine [Zn complex]
reduced fluorescence intensity at the end of the titration (PTH(1–34) [5]; 76 μM of Zn complex, PTH(1–34)): ~ 86% | CF50 (concentration required for 50% quenching of fluorescence intensity) (PTH(1–34) [5]; PTH(1–34)): 21.46 ± 0.5 µM | stoichiometry (numbers of binding sites with equal affinities) (PTH(1–34) [5]; fluorescence quenching, PTH(1–34)): 1.9 | Kd (PTH(1–34) [5]; fluorescence quenching, PTH(1–34) 7.4 μM, pH 7.2): 27 ± 1.8 µM | reduced fluorescence intensity at the end of the titration (PTH(1–84) [1]; 76 μM of Zn complex, PTH(1–84)): ~ 75% | CF50 (concentration required for 50% quenching of fluorescence intensity) (PTH(1–84) [1]; PTH(1–84)): 31.8 ± 0.8 µM | stoichiometry (PTH(1–84) [1]; fluorescence quenching, PTH(1–84)): 2.0 | Kd (PTH(1–84) [1]; fluorescence quenching, PTH(1–84) 8.1 μM, pH 7.2): 34 ± 1.7 µM | Kd (PTH(1–34) [6]): 55.06 ± 0.06 µM | n (ITC) (PTH(1–34) [6]): 2.28 ± 0.13 | ∆H (ITC) (PTH(1–34) [6]): -5.9 ± 0.1 kcal/mol | ∆S (ITC) (PTH(1–34) [6]): −5.37 cal mol^−1K^−1 | Kd (PTH(1–84) [7]): 54.1 ± 0.08 µM | n (ITC) (PTH(1–84) [7]): 1.93 ± 0.04 | ∆H (ITC) (PTH(1–84) [7]): -11.25 ± 0.3 kcal/mol | ∆S (ITC) (PTH(1–84) [7]): −7.15 cal mol^−1K^−1 | concentration for complete suppression of the cAMP response [8]: ~ 20 μM | IC50 ([8]; read-out: concentration at which 50% reduced activity (cAMP response) was observed): 2 µM | concentration for complete suppression of the cAMP response ([2]; PTH(1–84) 0.01 μM, 15 min pre-incubation with peptide): ~ 20 μM | IC50 ([2]; PTH(1–84) 0.01 μM, 15 min pre-incubation with peptide, read-out: concentration at which 50% reduced activity (cAMP response) was observed): 2 µM | suppression of cAMP generation (PTH1R in HEK 293 cells): did not show a significant suppression | change in NMR cross peaks / intensity of PTH(1–84) (PTH(1–84) [3]): binds to N–terminal residues | nuclease activity [4]: did not show nuclease or antiprolifirative activities | antiproliferative activity (cancer cells): did not show nuclease or antiprolifirative activities
